Results published in publication PMC9513230, “Inhibition of Plasmodium falciparum Hsp70-Hop partnership by 2-phenylthynesulfonamide” (Frontiers in Molecular Biosciences, 2022).

Legend:
[1] = biological target: T1, PfHop (Plasmodium falciparum, UniProt Q8ILC1); experiment: SPR equilibrium binding to immobilized PfHop; settings: SPR, ligand PfHop immobilized, 25°C; read-out: KD
T1 construct: His; made in house; host or cells: E. coli XL1 Blue
T1 sequence (Q8ILC1 1-564): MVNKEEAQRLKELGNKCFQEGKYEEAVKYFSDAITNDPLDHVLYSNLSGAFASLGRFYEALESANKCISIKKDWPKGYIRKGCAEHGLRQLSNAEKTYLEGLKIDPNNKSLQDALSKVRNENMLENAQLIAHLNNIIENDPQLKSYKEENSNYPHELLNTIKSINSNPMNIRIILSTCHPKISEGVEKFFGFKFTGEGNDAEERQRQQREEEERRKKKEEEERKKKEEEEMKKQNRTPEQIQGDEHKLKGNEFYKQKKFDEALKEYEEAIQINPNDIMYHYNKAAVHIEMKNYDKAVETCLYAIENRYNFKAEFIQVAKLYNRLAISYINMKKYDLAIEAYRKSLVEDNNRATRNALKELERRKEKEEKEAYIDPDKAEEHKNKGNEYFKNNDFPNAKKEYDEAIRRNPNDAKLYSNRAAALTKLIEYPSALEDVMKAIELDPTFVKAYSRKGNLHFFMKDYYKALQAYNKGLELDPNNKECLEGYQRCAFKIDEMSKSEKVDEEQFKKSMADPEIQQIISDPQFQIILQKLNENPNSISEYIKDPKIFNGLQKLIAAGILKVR
Method: The steady-state equilibrium binding kinetics for the inhibitors on either PfHsp70-1 or PfHop were investigated using BioNavis Navi 420A ILVES multi-parametric surface plasmon resonance (MP-SPR) system (BioNavis, Finland) following a previously described method ([Lebepe et al., 2020]; [Chakafana et al., 2021]). Briefly, filter-sterilized de-gassed PBS (4.3 mM Na2HPO4, 1.4 mM KH2PO4, 137 mM NaCl, 3 mM KCl, 0.005% (v/v) Tween 20, and 20 mM EDTA; pH 7.4) was used as running buffer for the assay. The ligand (0.1 μg/ml of PfHsp70-1/PfHop) was immobilized onto a carboxymethyl dextran (CMD 3-D) gold sensor chip through amine coupling. PES was injected (flow rate of 50 μl/min) as analyte at varying final concentrations (0, 1.25, 2.5, 5, 10, 20 nM). […] Steady-state equilibrium was achieved after allowing the interaction to occur for 8 min at 25°C, followed by dissociation for 4 min at 25°C, respectively. The data generated were analyzed using Data Viewer (BioNavis, Finland) after subtraction of baseline (signals generated on the chip surface without protein immobilized and buffer without inhibitor). The resultant sensorgrams were analyzed to determine the equilibrium binding affinities using Trace Drawer software version 1.8 (Ridgeview Instruments; Sweden).

[2] = biological target: PfHsp70-1NBD (Plasmodium falciparum, UniProt Q8IB24); experiment: SPR equilibrium binding to immobilized PfHsp70-1NBD; settings: ligand PfHsp70-1NBD immobilized, 25°C
Method: The steady-state equilibrium binding kinetics for the inhibitors on either PfHsp70-1 or PfHop were investigated using BioNavis Navi 420A ILVES multi-parametric surface plasmon resonance (MP-SPR) system (BioNavis, Finland) following a previously described method ([Lebepe et al., 2020]; [Chakafana et al., 2021]). Briefly, filter-sterilized de-gassed PBS (4.3 mM Na2HPO4, 1.4 mM KH2PO4, 137 mM NaCl, 3 mM KCl, 0.005% (v/v) Tween 20, and 20 mM EDTA; pH 7.4) was used as running buffer for the assay. The ligand (0.1 μg/ml of PfHsp70-1/PfHop) was immobilized onto a carboxymethyl dextran (CMD 3-D) gold sensor chip through amine coupling. […] Similarly, as controls nucleotides (5 µM ATP/ADP) and a known P. falciparum Hsp70 inhibitor, (−)-Epigallocatechin-3-gallate (EGCG; [Zininga et al., 2017b]) were similarly injected at varying final concentrations (0, 1.25, 2.5, 5, 10, 20 nM) over the chip surface. […] The data generated were analyzed using Data Viewer (BioNavis, Finland) after subtraction of baseline (signals generated on the chip surface without protein immobilized and buffer without inhibitor). The resultant sensorgrams were analyzed to determine the equilibrium binding affinities using Trace Drawer software version 1.8 (Ridgeview Instruments; Sweden).

[3] = biological target: PfHsp70-1-PfHop association (Plasmodium falciparum, UniProt Q8IB24+Q8ILC1); experiment: ELISA for the direct association of PfHsp70-1 and PfHop; type: biochemical
Method: An enzyme-linked immunosorbent assay (ELISA) was used to validate the effect of PES on the direct association of PfHsp70-1 and PfHop following a previously described protocol ([Mabate et al., 2018]). Briefly, ligand (5 μg/ml of PfHsp70-1) suspended in 5 mM sodium bicarbonate (NaHCO3) at pH 9.5 was noncovalently immobilized onto a 96 well plate overnight at 4 C. BSA (5 μg/ml) was used as a ligand for the negative control. The wells were washed with 150 µl TBST which contains (Tris-buffered saline- Tween (TBST; 20 mM Tris HCl, pH 7.5, 500 mM NaCl supplemented with 0.1% Tween 20) prior to blocking with 5% fat-free milk in TBST and incubated at 25 C for 1 h. The wells were washed using TBST for a total of 10 min. Varying concentrations (0–1,000 nM) of analyte PfHop were added to the wells and incubated for 2 h at 25 °C. To remove the unbound analyte, the plate was washed with 150 µl TBST three times before the addition of rabbit-raised α-PfHop antibody (1: 4,000) followed by incubation at 25°C for 1 h. Subsequently, the wells were washed with 150 µl TBST three times before the addition of 100 µl secondary HRP conjugated goat-raised α-rabbit antibody (1: 4,000) and incubated for 45 min at 25 °C. The substrate, 3,3’5,5’ –tetramethylbenzidine (TMB) (Bio Scientific, United States) was added into the wells and incubated for 2 min at 25 C. Color development was monitored by recording absorbance readings at 370 nm at 5 min time intervals for 30 min using a SpectraMax M3 Microplate reader (Molecular Devices, United States). To determine the effect of the inhibitor, the assay was conducted in the presence of 25 µM) of PES. […] Furthermore, the assay was repeated interchanging the ligand and analyte to validate data reproducibility. The generated data were analyzed taking into account the background signal generated by BSA which served as the control protein. The absorbance values obtained at the highest concentration of each analyte were averaged to represent maximum (100%) binding. Titration curves were then generated using GraphPad Prism 9.3.1 (GraphPad Software, United States). The relative binding affinities of PES under each experimental setting were normalized relative to the affinity estimated for assay conducted in the absence of nucleotide at the highest concentration of PfHop. Statistical analysis was conducted to establish significant differences at p < 0.05 using a student t-test.

[4] = system: Asexual P. falciparum strain 3D7 parasites; experiment: Parasite growth inhibition assay (SYBR Gold); type: cell-based; settings: Plasmodium falciparum; P. falciparum 3D7, asexual blood stage, 96 h, n = 3; read-out: IC50 parasite growth
Method: Parasite growth without any drug present, which allowed the parasites to proliferate unrestricted, was used as negative drug control. SYBRTM Gold DNA stain (Invitrogen, ThermoFisher Scientific Inc., Germany) was used to measure the proliferation of the parasites compared to the controls as previously described ([[…] al., 2004]). Fluorescence was measured using a TECAN Spark® multimode microplate reader (Tecan Trading AG, Switzerland) and the data were analyzed using SigmaPlot, version 12 (Systat Software Inc., IL, United States).

[5] = biological target: T1, PfHop; experiment: Intrinsic fluorescence analysis of PfHop tertiary structure; settings: PfHop 4 µM with 20 µM PES, excitation 295 nm; apo state 339 nm
Method: The effect of PES on the tertiary structural conformation of recombinant PfHsp70-1 and PfHop proteins relative to the nucleotide-dependent conformations were assessed by monitoring intrinsic fluorescence as previously described ([Zininga et al., 2016]; [Lebepe et al., 2020]). […] The assay was repeated in the presence of 20 µM PES. Fluorescence emission spectra were monitored at 300–400 nm after initial excitation at 295 nm. The spectra data collected from seven spectral scans were averaged and processed taking into account the baseline (effect of buffer in the absence of protein).

[6] = system: PfHsp70-1; experiment: MDH heat-induced aggregation suppression (holdase chaperone activity); type: biochemical, Plasmodium falciparum; settings: MDH aggregation at 51°C, 360 nm; PES 5-100 nM
Method: In the current study, we investigated the effect of PES on the holdase chaperone activity of PfHsp70-1. The assay was initiated by adding 1,25 µM MDH and 0,75 µM PfHsp70-1 to the assay buffer (50 mM Tris-HCl, 100 mM NaCl; pH 7.4) and heated to 51°C. Aggregation of MDH was monitored as a function of light scattering at 360 nm over 30 min at 51°C in a SpectraMax M3 (Molecular Devices, United States) microplate spectrometer. The assay was repeated at varying final concentrations (5, 15, 25, 50, 100 nM) of PES. The chaperone function of PfHsp70-1 under various experimental conditions was compared to the activity of the chaperone recorded in the absence of nucleotide. Statistical analysis was conducted using a student t-test and a p < 0.05 represented functionally significant variation.

Sequence of PfHsp70-1-PfHop association (Q8IB24 entry or part of it, one chain of several): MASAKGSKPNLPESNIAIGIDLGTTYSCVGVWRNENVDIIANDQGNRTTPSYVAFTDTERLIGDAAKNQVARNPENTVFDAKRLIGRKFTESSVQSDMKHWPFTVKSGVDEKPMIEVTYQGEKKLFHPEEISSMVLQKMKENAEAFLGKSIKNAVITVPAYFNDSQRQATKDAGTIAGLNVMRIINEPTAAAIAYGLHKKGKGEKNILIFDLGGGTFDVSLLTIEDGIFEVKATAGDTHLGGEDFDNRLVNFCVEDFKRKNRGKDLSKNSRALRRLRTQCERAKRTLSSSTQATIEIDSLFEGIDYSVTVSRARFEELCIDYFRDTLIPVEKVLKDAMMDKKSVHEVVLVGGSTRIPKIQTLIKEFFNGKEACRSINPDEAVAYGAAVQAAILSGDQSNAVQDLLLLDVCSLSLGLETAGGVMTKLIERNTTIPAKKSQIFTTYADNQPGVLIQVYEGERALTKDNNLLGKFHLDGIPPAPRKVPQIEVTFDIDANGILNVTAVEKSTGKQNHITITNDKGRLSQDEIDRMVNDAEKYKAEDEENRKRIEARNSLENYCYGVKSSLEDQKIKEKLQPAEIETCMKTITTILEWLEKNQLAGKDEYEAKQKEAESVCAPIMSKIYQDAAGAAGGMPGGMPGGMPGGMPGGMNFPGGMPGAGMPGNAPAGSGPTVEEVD
Sequence of PfHsp70-1NBD (Q8IB24 entry or part of it): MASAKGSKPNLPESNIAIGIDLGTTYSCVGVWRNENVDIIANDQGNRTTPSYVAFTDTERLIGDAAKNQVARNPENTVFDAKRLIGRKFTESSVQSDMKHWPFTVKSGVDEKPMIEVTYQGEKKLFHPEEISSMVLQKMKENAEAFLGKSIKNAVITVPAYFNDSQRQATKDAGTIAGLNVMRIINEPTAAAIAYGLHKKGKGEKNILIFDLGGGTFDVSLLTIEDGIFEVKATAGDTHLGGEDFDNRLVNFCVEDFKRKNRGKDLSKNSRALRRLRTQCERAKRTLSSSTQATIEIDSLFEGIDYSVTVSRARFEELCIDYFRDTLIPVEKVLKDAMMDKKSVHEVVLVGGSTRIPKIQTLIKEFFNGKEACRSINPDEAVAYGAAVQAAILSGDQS

## NS(=O)(=O)C#Cc1ccccc1 [PES, 2-Phenylthynesulfonamide]
[1]
  Kd: 707 ± 70 nM
[2]
  Kd: 7390 ± 90 nM
[3]; 25 µM nucleotide or inhibitor
  Effect on association of PfHsp70-1 and PfHop: abrogated the interaction of PfHsp70-1 and PfHop
[3]; ligand PfHop, analyte PfHsp70-1
  IC50: 38.1 ± 3.6 nM
[3]; ligand PfHsp70-1, analyte PfHop
  IC50: 32.4 ± 2.1 nM
[4]
  IC50: 38700 ± 700 nM
[5]
  Fluorescence emission peak: 340 nm
[6]
  Effect on holdase chaperone activity of PfHsp70-1: inhibited the chaperone activity of PfHsp70-1 in a concentration-dependent fashion
